Measurements from US7388072B2, “MAGE peptides presented by HLA class II molecules” (priority 2001, dated 2008).

Tests used:
DR1 = biological target: T1, DR1 (Homo sapiens, UniProt P01903+P01911, A100R/D57E/F55L/F60I/F76Y/I96L/L162R/M171V/P40L/Q125E/R42F/V115G/Y59C); assay: HLA-DR peptide binding assay (competition with biotinylated peptide on purified HLA-DR molecules), DR1
T1 construct: endogenous in cells

DR3 = biological target: T2, DR3 (Homo sapiens, UniProt P01903+P01911, A100K/A102G/A103R/A169T/F55Y/I96L/K41T/L162R/M171V/P40S/Q125H/Q178H/Q39Y/R42S/S66N/T106N/T262R/W38E/Y61H); assay: HLA-DR peptide binding assay (competition), DR3
T2 construct: endogenous in cells

DRB4 = biological target: T3, DRB4 (Homo sapiens, UniProt P01903+P13762); assay: HLA-DR peptide binding assay (competition), DRB4
T3 construct: endogenous in cells

Compound: CC(C)C[C@H](NC(=O)[C@H](C)NC(=O)[C@H](CCCNC(=N)N)NC(=O)[C@@H]1CCCN1C(=O)CNC(=O)[C@H](Cc1c[nH]c2ccccc12)NC(=O)[C@H](CC(C)C)NC(=O)[C@H](Cc1ccccc1)NC(=O)[C@H](CCC(=O)O)NC(=O)[C@H](Cc1ccc(O)cc1)NC(=O)[C@H](CS)NC(=O)[C@H](C)N)C(=O)N[C@H](C(=O)N[C@@H](CCC(=O)O)C(=O)N[C@H](C(=O)N[C@@H](CO)C(=O)O)[C@@H](C)O)C(C)C
- Ratios IC50 MAGE-3/IC50 reference (DR1): 0.2
- binding to purified HLA-DR molecules (in words) (DR1; DR1, competition assay): very high affinity
- binding to purified HLA-DR molecules (in words) (DR3; competition assay): No binding was observed
- IC50 (DR3; competition with biotinylated MT 2-16 100 nM, pH 4.5, read-out: IC50 (nM) of MAGE-3267-282): > 10000 nM
- Ratios IC50 MAGE-3/IC50 reference (DRB4): 70
- binding to purified HLA-DR molecules (in words) (DRB4; DRB4, competition assay): bound
